Results published in patent US11168073B2, “3,3-difluoroallylamines or salts thereof and pharmaceutical compositions comprising the same” (YUHAN CORPORATION, priority 2018, dated 2021).
Counter-ions that a name gives are not always drawn. Like-named read-outs stand apart in the source and are kept apart here.

Experiments:
Type in all cases: biochemical
[1] = molecular target: T1, recombinant human MAO-B (monoamine oxidase-B) (Homo sapiens, UniProt P27338); test: Activity evaluation on recombinant human MAO-B (Amplex Red/HRP-coupled assay, 1 mM benzylamine substrate); conditions: read-out: Inhibitory Activity (IC50, nM) MAO-B
T1 construct: purchased Sigma-Aldrich
T1 sequence (P27338 1-520): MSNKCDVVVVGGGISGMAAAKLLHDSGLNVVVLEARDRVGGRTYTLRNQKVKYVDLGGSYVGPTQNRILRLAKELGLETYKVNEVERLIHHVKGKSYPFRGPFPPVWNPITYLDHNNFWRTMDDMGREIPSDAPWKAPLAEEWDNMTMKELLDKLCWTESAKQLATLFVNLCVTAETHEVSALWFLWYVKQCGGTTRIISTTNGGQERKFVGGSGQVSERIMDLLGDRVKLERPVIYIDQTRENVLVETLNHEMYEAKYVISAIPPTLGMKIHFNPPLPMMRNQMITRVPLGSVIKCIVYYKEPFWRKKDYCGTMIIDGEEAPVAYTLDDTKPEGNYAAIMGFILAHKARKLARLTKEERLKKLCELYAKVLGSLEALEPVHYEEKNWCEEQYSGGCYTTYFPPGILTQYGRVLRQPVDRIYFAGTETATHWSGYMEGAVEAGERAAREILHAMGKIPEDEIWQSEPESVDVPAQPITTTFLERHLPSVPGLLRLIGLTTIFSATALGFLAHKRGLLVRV
How it was run: (§1)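 Each oxidase is tested with its own substrate: MAO-A with 0.5 mM tyramine, MAO-B with 1 mM benzylamine, DAO with 1 mM putrescine. After 30 min enzyme-compound preincubation at 37 °C, Amplex Red (200 uM) plus HRP (1 U/mL) reports H2O2 as fluorescence; IC50 is fitted from eight-point curves.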

[2] = molecular target: T2, recombinant human VAP-1 (Homo sapiens, UniProt Q16853); test: Activity evaluation on recombinant human VAP-1 (Amplex Red/HRP-coupled hydrogen peroxide assay, benzylamine substrate); conditions: read-out: Inhibitory Activity (IC50, nM) human VAP-1
T2 construct: purchased R&D systems
T2 sequence (Q16853 1-763): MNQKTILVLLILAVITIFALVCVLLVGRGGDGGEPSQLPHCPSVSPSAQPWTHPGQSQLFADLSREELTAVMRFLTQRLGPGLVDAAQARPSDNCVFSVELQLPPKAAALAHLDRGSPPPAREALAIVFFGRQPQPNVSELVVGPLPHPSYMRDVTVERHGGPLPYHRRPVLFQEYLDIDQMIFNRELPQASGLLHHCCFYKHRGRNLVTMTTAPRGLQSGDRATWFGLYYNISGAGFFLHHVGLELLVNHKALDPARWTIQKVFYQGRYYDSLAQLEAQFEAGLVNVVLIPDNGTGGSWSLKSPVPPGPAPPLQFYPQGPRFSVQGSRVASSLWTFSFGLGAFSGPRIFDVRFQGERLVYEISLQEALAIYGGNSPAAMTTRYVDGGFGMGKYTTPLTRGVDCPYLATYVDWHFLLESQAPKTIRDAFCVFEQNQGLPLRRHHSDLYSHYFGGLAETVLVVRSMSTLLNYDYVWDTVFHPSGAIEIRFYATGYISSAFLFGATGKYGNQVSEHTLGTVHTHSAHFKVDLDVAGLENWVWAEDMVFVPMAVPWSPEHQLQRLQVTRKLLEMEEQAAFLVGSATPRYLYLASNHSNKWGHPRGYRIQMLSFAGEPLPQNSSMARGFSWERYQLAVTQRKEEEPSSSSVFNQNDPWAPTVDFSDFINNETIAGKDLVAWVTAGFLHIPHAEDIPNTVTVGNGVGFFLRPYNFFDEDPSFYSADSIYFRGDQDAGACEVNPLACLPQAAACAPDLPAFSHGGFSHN
How it was run: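 Hydrogen peroxide from benzylamine (1 mM) oxidation by human recombinant VAP-1 detected via HRP-coupled Amplex Red (200 uM) fluorescence, kinetic over 1–2 h. Enzyme and compound preincubated 30 min at 37 °C, pH 7.4 phosphate; 8-point dose response, signal-rate decrease versus DMSO control fitted to four-parameter logistic for IC50.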

[3] = molecular target: T3, recombinant human DAO (diamine oxidase) (Homo sapiens, UniProt P19801); test: Activity evaluation on recombinant human DAO (Amplex Red/HRP-coupled assay, 1 mM putrescine substrate); conditions: read-out: Inhibitory Activity (IC50, nM) DAO
T3 construct: purchased R&D systems
T3 sequence (P19801 20-751): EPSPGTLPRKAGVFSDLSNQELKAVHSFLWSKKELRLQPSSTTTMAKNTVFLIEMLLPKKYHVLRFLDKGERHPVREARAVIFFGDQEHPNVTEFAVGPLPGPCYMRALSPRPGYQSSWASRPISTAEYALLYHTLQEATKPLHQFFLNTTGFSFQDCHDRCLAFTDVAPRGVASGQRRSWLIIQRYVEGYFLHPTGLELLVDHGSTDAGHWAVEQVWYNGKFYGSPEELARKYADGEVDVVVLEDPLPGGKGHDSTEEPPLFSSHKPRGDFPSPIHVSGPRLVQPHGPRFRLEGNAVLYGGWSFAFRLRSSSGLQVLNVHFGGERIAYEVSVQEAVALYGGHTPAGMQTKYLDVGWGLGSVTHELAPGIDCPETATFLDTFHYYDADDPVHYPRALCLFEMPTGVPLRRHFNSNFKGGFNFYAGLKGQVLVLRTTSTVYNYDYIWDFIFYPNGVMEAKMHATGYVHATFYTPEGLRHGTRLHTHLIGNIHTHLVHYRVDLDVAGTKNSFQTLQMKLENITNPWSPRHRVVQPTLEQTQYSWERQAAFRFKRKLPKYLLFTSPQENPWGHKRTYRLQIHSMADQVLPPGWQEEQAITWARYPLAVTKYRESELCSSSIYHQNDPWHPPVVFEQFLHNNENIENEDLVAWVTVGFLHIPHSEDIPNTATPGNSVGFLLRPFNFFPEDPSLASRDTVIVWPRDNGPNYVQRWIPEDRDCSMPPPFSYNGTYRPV
How it was run: as §1

[4] = molecular target: T4, recombinant human MAO-A (monoamine oxidase-A) (Homo sapiens, UniProt P21397); test: Activity evaluation on recombinant human MAO-A (Amplex Red/HRP-coupled assay, 0.5 mM tyramine substrate); conditions: read-out: Inhibitory Activity (IC50, nM) MAO-A
T4 construct: purchased Sigma-Aldrich
T4 sequence (P21397 1-527): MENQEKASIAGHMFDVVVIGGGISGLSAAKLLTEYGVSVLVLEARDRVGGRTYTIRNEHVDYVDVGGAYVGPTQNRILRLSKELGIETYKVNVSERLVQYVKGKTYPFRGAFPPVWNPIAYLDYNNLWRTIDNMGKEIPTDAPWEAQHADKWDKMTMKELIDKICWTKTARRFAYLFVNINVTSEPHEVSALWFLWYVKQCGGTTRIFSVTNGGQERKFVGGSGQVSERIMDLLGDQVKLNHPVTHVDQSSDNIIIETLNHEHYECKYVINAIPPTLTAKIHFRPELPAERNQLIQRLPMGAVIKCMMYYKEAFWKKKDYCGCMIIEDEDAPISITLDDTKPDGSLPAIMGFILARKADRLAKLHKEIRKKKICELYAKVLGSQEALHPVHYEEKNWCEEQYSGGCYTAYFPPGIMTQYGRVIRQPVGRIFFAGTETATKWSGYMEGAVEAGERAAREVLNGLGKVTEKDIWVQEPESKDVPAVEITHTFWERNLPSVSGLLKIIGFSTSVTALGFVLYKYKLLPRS
How it was run: as §1

[5] = recombinant human VAP-1, benzylamine substrate

Compound	IC50 ([1]; 1 mM benzylamine) [nM]	IC50 ([2]; recombinant human VAP-1, 30 min preincubation at 37° C., 1 mM benzylamine) [nM]	IC50 ([3]; 1 mM putrescine) [nM]	IC50 ([4]; 0.5 mM tyramine) [nM]	IC50 ([1]; 1 mM benzylamine substrate) [nM]	IC50 [2, 5] [nM]	IC50 ([3]; 1 mM putrescine substrate) [nM]	IC50 ([4]; 0.5 mM tyramine substrate) [nM]
NCC(Cn1ncn(-c2ccc(Br)c(F)c2)c1=O)=C(F)F [Example 4, 2-[2-(aminomethyl)-3,3-difluoro-allyl]-4-(4-bromo-3-fluoro-phenyl)-1,2,4-triazol-3-one Trifluoroacetate]	2300	4.2	58000	> 100000	–	–	–	–
Cc1cc(-c2ccc3c(c2)OCCN3C)cnc1-n1cnn(CC(CN)=C(F)F)c1=O [Example 223, 2-[2-(aminomethyl)-3,3-difluoro-allyl]-4-[3-methyl-5-(4-methyl-2,3-dihydro-1,4-benzoxazin-7-yl)-2-pyridyl]-1,2,4-triazol-3-one Trifluoroacetate]	–	–	–	–	38000	1.5	37000	> 10000
CN1C(=O)CCc2cc(-c3ccc4sc(Cn5cnn(CC(CN)=C(F)F)c5=O)cc4c3)ccc21 [Example 211, 6-[2-[[1-[2-(aminomethyl)-3,3-difluoro-allyl]-5-oxo-1,2,4-triazol-4-yl]methyl]benzothiophen-5-yl]-1-methyl-3,4-dihydroquinolin-2-one Trifluoroacetate]	–	–	–	–	42700	1.1	1860	38900
CCn1cc(-c2ccc(-c3csc(Cn4cnn(CC(CN)=C(F)F)c4=O)c3)cc2)cn1 [Example 288, 2-[2-(aminomethyl)-3,3-difluoro-allyl]-4-[[4-[4-(1-ethylpyrazol-4-yl)phenyl]-2-thienyl]methyl]-1,2,4-triazol-3-one Trifluoroacetate]	–	–	–	–	3230	2.6	3780	2910
